Data published in PubChem BioAssay (NCI).
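Each compound was tested at five concentrations against cells in 96-well plates for 48 hours. TGI is the concentration that stops growth completely.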

Experiments:
Experiment in all cases: NCI anticancer screen, dose series, 48 h
[1] = system: IGROV1 ovarian
[2] = system: SR leukemia
[3] = system: NCI/ADR-RES ovarian
[4] = system: PC-3 prostate
[5] = system: NCI-H522 lung
[6] = system: K-562 leukemia
[7] = system: RPMI-8226 leukemia
[8] = system: A498 renal
[9] = system: T-47D breast
[10] = system: EKVX NSCLC
[11] = system: MDA-MB-435
[12] = system: DU-145 prostate
[13] = system: HS 578T breast
[14] = system: SK-OV-3 ovarian
[15] = system: MCF7 breast
[16] = system: COLO 205 colon
[17] = system: HOP-62 NSCLC
[18] = system: OVCAR-4 ovarian
[19] = system: OVCAR-5 ovarian
[20] = system: A549 NSCLC
[21] = system: CCRF-CEM leukemia
[22] = system: LOX IMVI melanoma
[23] = system: M14 melanoma
[24] = system: MDA-MB-231 breast
[25] = system: SF-268 CNS
[26] = system: UACC-257 melanoma
[27] = system: ACHN renal
[28] = system: SK-MEL-5 melanoma
[29] = system: NCI-H460 lung
[30] = system: OVCAR-8 ovarian
[31] = system: SNB-19 CNS
[32] = system: MALME-3M melanoma
[33] = system: OVCAR-3 ovarian
[34] = system: HL-60(TB) leukemia
[35] = system: SF-539 CNS
[36] = system: NCI-H226 lung
[37] = system: 786-0 renal
[38] = system: HCT-116 colon
[39] = system: BT-549 breast
[40] = system: U251 CNS
[41] = system: UACC-62 melanoma
[42] = system: SNB-75 CNS
[43] = system: MOLT-4 leukemia
[44] = system: HCT-15 colon
[45] = system: MDA-N
[46] = system: CAKI-1 renal
[47] = system: KM12 colon
[48] = system: SK-MEL-2 melanoma
[49] = system: UO-31 renal
[50] = system: SF-295 CNS
[51] = system: TK-10 renal
[52] = system: SW-620 colon
[53] = system: SN12C renal
[54] = system: SK-MEL-28 melanoma
[55] = system: HCC-2998 colon
[56] = system: HT29 colon
[57] = system: NCI-H23 lung
[58] = system: RXF 393 renal
[59] = system: HOP-92 NSCLC

Measured: TGI

O/N=C\c1c2c(cc3c1CCC3)CCC2
not listed: [58] | [59]
> 100 µM: all other assays above

O=C1NC(N2CCCC(CO)C2)=N/C1=C\c1cccs1 (centres undefined)
not listed: [8] | [29]
> 100 µM: all other assays above
